US11274100B2, “EP300/CREBBP inhibitor” (Daiichi Sankyo Company, Limited, priority 2017, dated 2022)

How the values were obtained:
[1] = target: EP300 (Homo sapiens, UniProt Q09472); assay: Histone acetyltransferase inhibitory activity against EP300 (Test Example 1); type: biochemical; settings: 50 ng/mL EP300, 2 μM Acetyl-CoA, 100 nM Histone H4(1-25)-GSGSK (Biotin), 28° C. for 1 hour
Procedure: (§1) [Test Example 1] Evaluation of Histone
(§2) Acetyltransferase Inhibitory Activity against EP300 and CREBBP
(§3) 10 μL each of reaction solutions each containing a different concentration of the compound of each of Examples 1 to 108b (50 mM Tris-HCl (pH8.0), 0.1 mM EDTA, 1 mM dithiothreitol, 0.01% Tween-20, 0.01% Bovine serum albumin, 330 nM trichostatin A, 2 μM Acetyl-CoA (Sigma-Aldrich, #A2056), 100 nM Histone H4(1-25)-GSGSK (Biotin) (Anaspec, #65242-1), 1% dimethyl sulfoxide, 10 to 0.0006 μM of each compound, 50 ng/mL EP300 or 125 ng/mL CREBBP) was added to respective wells of a 384-well plate, and cultured at 28° C. for 1 hour. Thereafter, 5 μL of 30 μM Lys-CoA (Daiichi Sankyo Co., Ltd.) dissolved in LANCE detection buffer (Perkin Elmer Co., Ltd., #CR97-100) was added to each well. Furthermore, 5 μL of LANCE detection buffer containing 2 nM Eu-anti pan-Ac (Perkin Elmer Co., Ltd., #TRF0412) and 50 nM Sta-Ulight (Perkin Elmer Co., Ltd., #TRF0102) was added to each well, and the resultant was cultured at room temperature overnight. EnVision (Perkin Elmer Co., Ltd., Model 2104-0020) was used to measure ULight signals. […] EP300 and CREBBP were produced and purified by Daiichi Sankyo RD Novare Co., Ltd.

[2] = target: CREBBP (Homo sapiens, UniProt Q92793); assay: Histone acetyltransferase inhibitory activity against CREBBP (Test Example 1); type: biochemical; settings: 125 ng/mL CREBBP, 2 μM Acetyl-CoA, 100 nM Histone H4(1-25)-GSGSK (Biotin), 28° C. for 1 hour
Sequence of CREBBP (Q92793 whole entry): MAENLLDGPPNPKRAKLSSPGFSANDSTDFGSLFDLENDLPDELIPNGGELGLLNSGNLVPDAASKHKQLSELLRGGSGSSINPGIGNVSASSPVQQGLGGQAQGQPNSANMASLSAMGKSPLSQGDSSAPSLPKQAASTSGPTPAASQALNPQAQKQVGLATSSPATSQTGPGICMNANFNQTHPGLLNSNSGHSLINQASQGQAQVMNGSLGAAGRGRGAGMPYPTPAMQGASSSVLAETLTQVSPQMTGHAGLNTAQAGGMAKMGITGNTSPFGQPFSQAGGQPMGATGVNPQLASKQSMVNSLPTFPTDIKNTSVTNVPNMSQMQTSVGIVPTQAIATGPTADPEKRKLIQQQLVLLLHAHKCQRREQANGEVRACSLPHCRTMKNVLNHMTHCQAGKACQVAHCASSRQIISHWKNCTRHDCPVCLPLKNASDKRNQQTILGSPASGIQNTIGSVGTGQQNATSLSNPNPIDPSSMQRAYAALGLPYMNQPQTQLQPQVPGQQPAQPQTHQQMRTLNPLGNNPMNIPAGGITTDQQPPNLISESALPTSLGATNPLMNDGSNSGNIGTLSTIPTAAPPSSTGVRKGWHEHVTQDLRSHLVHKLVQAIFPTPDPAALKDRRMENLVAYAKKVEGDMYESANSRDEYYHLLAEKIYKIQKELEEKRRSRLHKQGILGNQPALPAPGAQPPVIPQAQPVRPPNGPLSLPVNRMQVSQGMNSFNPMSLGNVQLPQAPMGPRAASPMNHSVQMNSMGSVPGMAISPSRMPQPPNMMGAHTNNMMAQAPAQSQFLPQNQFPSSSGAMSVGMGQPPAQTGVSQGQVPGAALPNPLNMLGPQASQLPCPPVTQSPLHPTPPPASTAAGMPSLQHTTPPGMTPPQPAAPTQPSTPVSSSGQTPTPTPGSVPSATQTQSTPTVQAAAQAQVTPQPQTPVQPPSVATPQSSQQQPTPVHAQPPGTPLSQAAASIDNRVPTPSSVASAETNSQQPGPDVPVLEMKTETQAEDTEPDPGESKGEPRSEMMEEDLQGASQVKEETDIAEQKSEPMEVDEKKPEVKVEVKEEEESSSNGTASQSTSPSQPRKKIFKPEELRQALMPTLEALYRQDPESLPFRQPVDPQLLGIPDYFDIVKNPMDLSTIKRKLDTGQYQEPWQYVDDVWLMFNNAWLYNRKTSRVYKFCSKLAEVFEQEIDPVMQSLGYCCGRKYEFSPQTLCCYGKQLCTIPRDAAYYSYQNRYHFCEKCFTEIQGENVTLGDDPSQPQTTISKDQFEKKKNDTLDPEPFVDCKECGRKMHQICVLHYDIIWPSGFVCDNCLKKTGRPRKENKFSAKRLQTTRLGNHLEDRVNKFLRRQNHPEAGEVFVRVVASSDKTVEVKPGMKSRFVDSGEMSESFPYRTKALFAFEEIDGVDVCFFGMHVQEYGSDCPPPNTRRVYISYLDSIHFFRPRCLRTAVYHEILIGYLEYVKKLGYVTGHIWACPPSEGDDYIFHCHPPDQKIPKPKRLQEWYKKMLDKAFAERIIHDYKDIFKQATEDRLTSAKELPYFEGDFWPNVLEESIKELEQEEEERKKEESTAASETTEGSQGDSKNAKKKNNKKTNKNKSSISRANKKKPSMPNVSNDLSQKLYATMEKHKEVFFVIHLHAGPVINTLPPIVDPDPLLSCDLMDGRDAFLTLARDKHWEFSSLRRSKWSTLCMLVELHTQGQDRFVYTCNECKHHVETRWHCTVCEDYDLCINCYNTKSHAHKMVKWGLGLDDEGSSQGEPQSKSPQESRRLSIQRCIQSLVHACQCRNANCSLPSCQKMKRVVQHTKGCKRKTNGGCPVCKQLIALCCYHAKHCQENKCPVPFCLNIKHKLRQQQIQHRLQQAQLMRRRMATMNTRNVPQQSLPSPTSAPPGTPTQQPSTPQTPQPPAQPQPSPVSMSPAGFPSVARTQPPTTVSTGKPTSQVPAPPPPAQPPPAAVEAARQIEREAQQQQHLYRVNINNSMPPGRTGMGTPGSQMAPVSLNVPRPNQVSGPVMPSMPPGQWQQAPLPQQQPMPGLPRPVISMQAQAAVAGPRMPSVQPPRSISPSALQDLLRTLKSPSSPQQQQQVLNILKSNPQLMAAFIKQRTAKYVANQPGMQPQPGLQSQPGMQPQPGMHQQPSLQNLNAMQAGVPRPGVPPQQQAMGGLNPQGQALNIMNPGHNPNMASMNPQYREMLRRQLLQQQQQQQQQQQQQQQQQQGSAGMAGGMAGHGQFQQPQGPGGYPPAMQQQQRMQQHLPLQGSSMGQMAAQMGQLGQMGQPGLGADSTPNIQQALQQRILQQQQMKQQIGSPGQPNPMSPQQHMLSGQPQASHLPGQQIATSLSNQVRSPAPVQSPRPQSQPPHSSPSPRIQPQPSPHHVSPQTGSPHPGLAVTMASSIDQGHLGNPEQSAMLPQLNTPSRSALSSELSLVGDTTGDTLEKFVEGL
Procedure: as §1, §2, §3

[3] = test system: LK2 cells; assay: Cell growth inhibitory activity, LK2 cells (Test Example 3); type: cell-based; settings: Homo sapiens, LK-2, 72 h, cultured for 3 days, CellTiter-Glo
Procedure: (§4) [Test Example 3] Evaluation of Cell Growth Inhibitory Activity
(§5) As a culture medium for each cell, a 10% FBS supplemented RPMI 1640 medium (for LK2 cells and TE-8 cells derived from human esophageal cancer) was used. LK2 cells were purchased from Human Science Research Resources Bank, and TE-8 cells were purchased from Riken Cell Bank. The compound of each of Examples 1 to 108b was prepared by dilution with Freedom EVO 150 (Tecan Trading AG) (4-fold diluted, 10 stages, 10 mM to 38 nM). The resultant was added to respective wells of a 384-well plate in an amount of 40 nL/well using Echo 555 (Labcyte Inc.). The LK2 or TE-8 cells were seeded in the plate at 400 cells/40 μL/well (day 0), and were cultured for 3 days. On the day of addition of the compound (day 0) and 3 days after the addition of the compound (day 3), an ATP measurement reagent of CellTiter-Glo (registered trademark) 2.0 Assay (Promega Corporation, #G9242) was added to each well in an amount of 10 μL/well, and the amount of luminescence of each well was measured using EnVision. Based on the amount of luminescence (C0) on the day of the addition of the compound, and the amounts of luminescence of a compound non-addition group (C3) and a compound addition group (T3) obtained after the 3-day culture of the compound, a cell survival rate was calculated in accordance with the following expression: Cell survival rate (%)=(T3−C0)/(C3−C0)×100
(§6) A concentration (GI50 value) of each compound at which the growth of the TE-8 or LK-2 cells was inhibited by 50% was calculated by semilogarithmically plotting the cell survival rate at each concentration and the compound concentration.

[4] = test system: H3K27Ac; assay: Intracellular H3K27Ac inhibitory activity in LK2 cells (Test Example 2); type: cell-based; settings: Homo sapiens, LK-2, cultured with compound for 3 hours, read-out: Test Example 2 H3K27Ac Inhibition (LK2) IC50
Procedure: [Test Example 2] Evaluation of Intracellular H3K27Ac Inhibitory Activity
LK2 cells derived from human squamous cell lung cancer were seeded in a 96 well plate at 40000 cells/100 μL/well, and were cultured overnight at 37° C. in 5% CO2. The LK2 cells were purchased from Human Science Research Resources Bank. […] The supernatant was discarded, 4% paraformaldehyde was added thereto at 100 μL/well, and the resultant was allowed to stand still at room temperature for 15 minutes. The 4% paraformaldehyde was discarded, and the resultant was washed with PBS-T. A quenching buffer (PBS-T containing 1% H2O2) was added thereto at of 100 μL/well, and the resultant was allowed to stand still at room temperature for 10 minutes. The resultant was washed with PBS-T, a blocking buffer (StartingBlocK T20 (TBS) Blocking Buffer (Thermo […], #37543)) was added thereto at 200 μL/well, and the resultant was allowed to stand still at room temperature for 1 hour. The supernatant was discarded, Acetyl-Histone H3 (Lys27) (D5E4) XP (registered trademark) Rabbit mAb (cell Signaling, #8173) diluted with a blocking buffer was added thereto at 50 μL/well, and the resultant was allowed to stand still at 4° C. overnight. The resultant was washed with PBS-T, Anti-Rabbit IgG-HRP (Cell Signaling, #7074S) diluted with a blocking buffer was added thereto at 50 μL/well, and the resultant was cultured at room temperature for 1 hour. The resultant was washed with PBS-T, SuperSignal (registered trademark) ELISA Pico Chemiluminescent Substrate (Thermo […], #37069) was added thereto at 50 μL/well, and a signal was measured using EnVision.

[5] = test system: TE-8 cells; assay: Cell growth inhibitory activity, TE-8 cells (Test Example 3); type: cell-based; settings: Homo sapiens, 72 h, cultured for 3 days, CellTiter-Glo
Procedure: as §4, §5, §6

Sequence of EP300 (Q09472 whole entry): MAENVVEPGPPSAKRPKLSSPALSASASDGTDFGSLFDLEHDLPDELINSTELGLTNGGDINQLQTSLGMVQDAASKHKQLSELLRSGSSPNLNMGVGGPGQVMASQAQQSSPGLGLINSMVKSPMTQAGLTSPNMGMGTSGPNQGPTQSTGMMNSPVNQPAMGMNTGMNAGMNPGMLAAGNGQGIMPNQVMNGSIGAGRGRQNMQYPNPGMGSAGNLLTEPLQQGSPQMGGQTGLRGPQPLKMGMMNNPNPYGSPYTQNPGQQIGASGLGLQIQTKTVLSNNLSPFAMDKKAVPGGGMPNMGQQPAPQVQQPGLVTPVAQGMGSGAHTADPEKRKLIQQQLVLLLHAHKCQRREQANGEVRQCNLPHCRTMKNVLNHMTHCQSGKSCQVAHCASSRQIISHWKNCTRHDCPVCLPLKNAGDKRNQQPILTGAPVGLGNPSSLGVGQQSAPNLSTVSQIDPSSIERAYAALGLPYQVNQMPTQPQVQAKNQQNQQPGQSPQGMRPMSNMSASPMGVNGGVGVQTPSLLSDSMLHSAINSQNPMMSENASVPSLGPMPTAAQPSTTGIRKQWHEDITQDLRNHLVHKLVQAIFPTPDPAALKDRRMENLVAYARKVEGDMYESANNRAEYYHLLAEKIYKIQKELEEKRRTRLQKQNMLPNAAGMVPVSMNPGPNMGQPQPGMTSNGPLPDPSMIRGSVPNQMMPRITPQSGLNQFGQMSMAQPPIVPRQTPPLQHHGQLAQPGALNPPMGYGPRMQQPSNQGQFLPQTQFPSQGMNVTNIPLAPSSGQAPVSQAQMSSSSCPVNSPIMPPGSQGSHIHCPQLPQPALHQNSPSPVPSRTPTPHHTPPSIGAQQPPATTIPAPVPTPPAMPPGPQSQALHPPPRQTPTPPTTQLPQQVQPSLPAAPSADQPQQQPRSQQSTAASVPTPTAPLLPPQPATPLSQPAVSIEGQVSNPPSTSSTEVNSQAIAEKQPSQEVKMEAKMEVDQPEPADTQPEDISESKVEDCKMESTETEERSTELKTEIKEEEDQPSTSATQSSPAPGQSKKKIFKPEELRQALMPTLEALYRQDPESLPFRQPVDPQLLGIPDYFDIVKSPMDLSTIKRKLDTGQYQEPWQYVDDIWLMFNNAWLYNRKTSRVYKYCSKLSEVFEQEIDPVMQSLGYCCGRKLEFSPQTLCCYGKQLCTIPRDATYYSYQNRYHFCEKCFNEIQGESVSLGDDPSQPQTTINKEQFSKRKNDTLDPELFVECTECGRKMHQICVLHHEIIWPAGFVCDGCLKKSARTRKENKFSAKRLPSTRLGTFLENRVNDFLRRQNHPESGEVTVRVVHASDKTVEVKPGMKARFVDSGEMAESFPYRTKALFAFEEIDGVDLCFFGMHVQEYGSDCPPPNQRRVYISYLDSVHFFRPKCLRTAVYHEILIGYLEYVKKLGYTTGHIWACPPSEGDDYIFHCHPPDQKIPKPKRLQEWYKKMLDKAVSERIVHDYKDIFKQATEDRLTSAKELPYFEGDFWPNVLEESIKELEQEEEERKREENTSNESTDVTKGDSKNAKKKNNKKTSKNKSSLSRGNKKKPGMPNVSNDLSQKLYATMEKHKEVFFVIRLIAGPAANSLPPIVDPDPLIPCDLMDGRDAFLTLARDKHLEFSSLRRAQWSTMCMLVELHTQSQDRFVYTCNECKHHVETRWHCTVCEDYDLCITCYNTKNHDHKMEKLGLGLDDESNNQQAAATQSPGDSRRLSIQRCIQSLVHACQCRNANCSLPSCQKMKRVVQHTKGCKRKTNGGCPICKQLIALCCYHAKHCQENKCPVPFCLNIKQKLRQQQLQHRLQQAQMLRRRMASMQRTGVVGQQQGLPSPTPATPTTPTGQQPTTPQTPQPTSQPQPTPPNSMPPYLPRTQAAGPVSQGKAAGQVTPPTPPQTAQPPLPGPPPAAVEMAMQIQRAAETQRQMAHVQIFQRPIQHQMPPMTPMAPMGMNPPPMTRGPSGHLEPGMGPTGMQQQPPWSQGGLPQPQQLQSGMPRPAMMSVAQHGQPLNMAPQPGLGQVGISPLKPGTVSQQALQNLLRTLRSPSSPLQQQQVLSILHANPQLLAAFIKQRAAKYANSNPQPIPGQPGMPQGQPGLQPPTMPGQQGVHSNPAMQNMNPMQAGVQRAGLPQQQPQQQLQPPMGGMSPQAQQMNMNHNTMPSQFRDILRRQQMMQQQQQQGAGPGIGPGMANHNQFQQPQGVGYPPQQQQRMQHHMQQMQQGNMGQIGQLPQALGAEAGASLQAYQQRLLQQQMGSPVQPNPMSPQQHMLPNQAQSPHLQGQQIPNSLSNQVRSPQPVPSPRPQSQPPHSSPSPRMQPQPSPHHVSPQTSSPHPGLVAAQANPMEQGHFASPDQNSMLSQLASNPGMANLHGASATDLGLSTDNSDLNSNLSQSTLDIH

SMILES	IC50 [1] [µM]	IC50 [2] [µM]	IC50 [4] [µM]	GI50 [3] [µM]	GI50 [5] [µM]
O=C(Nc1ccc2[nH]ncc2n1)[C@H]1C[C@@H](F)CN1C(=O)C1(c2ccc(OCC(F)(F)F)c(F)c2)CC(F)(F)C1 [Example 87]	0.038	0.082	0.073	0.237	0.3
COc1ccc(C2(C(=O)N3C[C@H](F)C[C@@H]3C(=O)Nc3ccc4[nH]ncc4n3)CC(F)(F)C2)cc1 [Example 56, (4R)-1-{[3,3-Difluoro-1-(4-methoxyphenyl)cyclobutyl]carbonyl}-4-fluoro-N-1H-pyrazolo[4,3-b]pyridin-5-yl-D-prolinamide]	0.024	0.064	0.02	0.0988	0.0883
COc1ccc(C2(C(=O)N3CS(=O)(=O)C[C@@H]3C(=O)Nc3ccc4[nH]c(C)cc4n3)CCC(F)(F)CC2)cc1 [Example 79, (4S)-3-{[4,4-Difluoro-1-(4-methoxyphenyl)cyclohexyl]carbonyl}-N-(2-methyl-1H-pyrrolo[3,2-b]pyridin-5-yl)-1,3-thiazolidine-4-carboxamide 1,1-dioxide]	0.181	0.193	0.268	1.39	1.67
CS(=O)(=O)c1ccc(C2(C(=O)N3C[C@H](F)C[C@@H]3C(=O)Nc3ccc4[nH]ncc4c3C#N)CCC(F)(F)CC2)cc1 [Example 99, (4R)—N-(4-Cyano-1H-indazol-5-yl)-1-({4,4-difluoro-1-[4-(methylsulfonyl)phenyl]cyclohexyl}carbonyl)-4-fluoro-D-prolinamide]	0.076	0.205	0.062	0.3	0.399
COc1ccc(C2(C(=O)N3CCC[C@@H]3C(=O)Nc3cccc4[nH]ncc34)CCCC2)cc1 [Example 1, N-1H-Indazol-4-yl-1-{[1-(4-methoxyphenyl)cyclopentyl]carbonyl}-D-prolinamide]	0.176	0.218		2.74	3.41
COc1ccc(C2(C(=O)N3CCC[C@@H]3C(=O)Nc3ccn(C)n3)CCCC2)cc1 [Example 22, 1-{[1-(4-Methoxyphenyl)cyclopentyl]carbonyl}-N-(1-methyl-1H-pyrazol-3-yl)-D-prolinamide]	0.962	0.676	2.25		
N#Cc1ccccc1NC(=O)[C@H]1C[C@@H](F)CN1C(=O)C1(c2ccc(C(=O)O)cc2)CCCC1 [Example 29, 4-[1-({(2R,4R)-2-[(2-Cyanophenyl)carbamoyl]-4-fluoropyrrolidin-1-yl}carbonyl)cyclopentyl] benzoic acid]	0.02	0.125	0.474		
COc1ccc(C2(C(=O)N3CCC[C@@H]3C(=O)Nc3ccc4[nH]c(=O)[nH]c4c3)CCCC2)cc1 [Example 19, l-{[1-(4-Methoxyphenyl)cyclopentyl]carbonyl}-N-(2-oxo-2,3-dihydro-1H-benzimidazol-5-yl)-D-prolinamide]	0.171	0.169	1.05		
COc1ccc(C2(C(=O)N3CCC[C@@H]3C(=O)Nc3cccc4[nH]ncc34)CCC2)cc1 [Example 53, N-1H-Indazol-4-yl-1-{[1-(4-methoxyphenyl)cyclobutyl]carbonyl}-D-prolinamide]			2.08	2.64	6.06
COc1ccc(C2(C(=O)N3CCC[C@@H]3C(=O)Nc3ccc(OCCN4CCOCC4)cc3C#N)CCCC2)cc1 [Example 23, N-{2-Cyano-4-[2-(morpholin-4-yl)ethoxy]phenyl}-1-{[1-(4-methoxyphenyl)cyclopentyl]carbonyl}-D-prolinamide]	0.101	0.171	0.121		

More lines, in order of falling IC50 [1], values ahead:

IC50 [1] [µM]	IC50 [2] [µM]	IC50 [4] [µM]	SMILES	GI50 [3] [µM]	GI50 [5] [µM]
0.259	0.334	1.03	COc1ccc(C2(C(=O)N3C[C@H](O)C[C@@H]3C(=O)Nc3cccc4[nH]ncc34)CCCC2)cc1 [Example 5, (4R)-4-Hydroxy-N-1H-indazol-4-yl-1-{[1-(4-methoxyphenyl)cyclopentyl]carbonyl}-D-prolinamide]		
0.218	0.353	0.908	COc1ccc(C2(C(=O)N3CCC[C@@H]3C(=O)Nc3cccc(N)n3)CCCC2)cc1 [Example 15, N-(6-Aminopyridin-2-yl)-1-{[1-(4-methoxyphenyl)cyclopentyl]carbonyl}-D-prolinamide]		
0.182	0.233	0.577	CNc1cccc(NC(=O)[C@H]2CCCN2C(=O)C2(c3ccc(OC)cc3)CCCC2)n1 [Example 30, 1-{[1-(4-Methoxyphenyl)cyclopentyl]carbonyl}-N-[6-(methylamino)pyridin-2-yl)-D-prolinamide]		
0.061	0.095	0.304	COc1ccc(C2(C(=O)N3CCC[C@@H]3C(=O)Nc3cccc4[nH]ccc34)CCCC2)cc1 [Example 16, N-1H-Indol-4-yl-1-{[1-(4-methoxyphenyl)cyclopentyl]carbonyl}-D-prolinamide]		
0.034	0.043	0.015	COc1ccc(C2(C(=O)N3C[C@H](F)C[C@@H]3C(=O)Nc3ccc4[nH]ncc4n3)CCCCC2)cn1 [Example 63]	0.086	0.117
0.031	0.075	0.089	[2H]C([2H])([2H])Oc1ccc(C2(C(=O)N3C[C@H](F)C[C@@H]3C(=O)Nc3ccc4[nH]ncc4n3)CCC(F)(F)CC2)cc1F [Example 91, (4R)-1-[(4,4-Difluoro-1-{3-fluoro-4-[(^2H3)methyloxy]phenyl}cyclohexyl)carbonyl]-4-fluoro-N-1H-pyrazolo[4,3-b]pyridin-5-yl-D-prolinamide]	0.217	0.364
0.022	0.029	0.027	COc1ccc(C2(C(=O)N3CS(=O)(=O)C[C@@H]3C(=O)Nc3ccc4[nH]ncc4n3)CCCCC2)cc1 [Example 40, (4S)-3-{[1-(4-Methoxyphenyl)cyclohexyl]carbonyl}-N-(1H-pyrazolo[4,3-b]pyridin-5-yl)-1,3-thiazolidin-4-carboxamide 1,1-dioxide]		
0.017	0.023	> 10	O=C(NS(=O)(=O)C1CC1)c1ccc(C2(C(=O)N3C[C@H](F)C[C@@H]3C(=O)Nc3cccc4[nH]ncc34)CCCCC2)cc1 [Example 36, (4R)-1-[(1-{4-[(Cyclopropylsulfonyl)carbamoyl]phenyl}cyclohexyl)carbonyl]-4-fluoro-N-1H-indazol-4-yl-D-prolinamide]		
